Results as given in publication PMC10610214 (Pharmaceuticals, 2023).

Columns and labels:
[1] = molecular target: T1, AChE (from electric eel) (Electrophorus electricus, UniProt O42275); assay: biochemical; settings: AChE from electric eel; mean ± SD of three experiments; read-out: AChE Inhibition (IC50)
T1 construct: AChE (from electric eel); purchased Sigma Chemical Company (St. Louis, MO, USA)
Method: (§1) The ChE inhibitory activity of the test compounds was determined using the modified Ellman’s method. The compounds were dissolved in DMSO (10 mmol/L) and then diluted with PB (phosphate buffer) solution to attain a range of final concentrations. […] Briefly, 100 μL of different concentrations of the test or standard compounds and 100 μL of AChE/BuChE (0.5 U/mL) were added into 48-well plates and then co-incubated at 37 °C for 30 min. […] All concentrations mentioned are final.

[2] = molecular target: T2, BuChE (from equine serum) (Equus caballus, UniProt P81908); assay: biochemical; settings: mean ± SD of three experiments, read-out: BuChE Inhibition (IC50)
T2 construct: BuChE (from equine serum); purchased Sigma Chemical Company (St. Louis, MO, USA); host or cells: equine serum
Method: as §1

[3] = system: H2O2-induced PC12 cells; assay: Neuroprotection against H2O2-induced PC12 cell injury (MTT); format: cell-based; settings: H2O2 250 μM, mean ± SEM
Method: Neuroprotection assay is similar to cytotoxicity. Oxidative cellular damage caused by H2O2 has become one of the important methods to study oxidative damage in neural cells. PC12 cells were seeded into a 96-well plate at a density of 5.0 × 10^3 cells per well. After the cells were incubated overnight, the old medium was discarded. […] After incubating overnight, 20 μL of MTT solution (5 mg/mL, Sigma-Aldrich) was added per well, and the cells were incubated for an additional 4 h. Afterwards, the supernatant was removed and 150 μL of DMSO was added. The 96-well plate was placed on the shaker for 10–15 min, and then the absorbance at 492 nm was measured by a microplate reader.

[4] = system: PC12 cells; assay: Cytotoxicity in PC12 cells (MTT); format: cell-based
Method: The cytotoxicity and neuroprotective effects of the compounds on PC12 cells were evaluated by MTT assay. PC12 cells were seeded into a 96-well plate at a density of 5.0 × 10^3 cells per well. After the cells were incubated overnight, the old medium was discarded. The cells were incubated for another 24 h with fresh medium containing compounds at a concentration of 30 or 50 μM. A total of 20 μL of MTT solution (5 mg/mL, Sigma-Aldrich, Shanghai, China) was then added per well, and the cells were incubated for an additional 4 h. Afterwards, the supernatant was removed and 150 μL of DMSO was added to solubilize formazan crystals. The 96-well plate was placed on the shaker for 10–15 min, and then the absorbance at 492 nm was measured by a microplate reader.

[5] = system: adjuvant-induced arthritis (AIA) rats; design: method as in PMID 36450214; settings: cited from earlier work

T2 sequence (P81908 whole entry): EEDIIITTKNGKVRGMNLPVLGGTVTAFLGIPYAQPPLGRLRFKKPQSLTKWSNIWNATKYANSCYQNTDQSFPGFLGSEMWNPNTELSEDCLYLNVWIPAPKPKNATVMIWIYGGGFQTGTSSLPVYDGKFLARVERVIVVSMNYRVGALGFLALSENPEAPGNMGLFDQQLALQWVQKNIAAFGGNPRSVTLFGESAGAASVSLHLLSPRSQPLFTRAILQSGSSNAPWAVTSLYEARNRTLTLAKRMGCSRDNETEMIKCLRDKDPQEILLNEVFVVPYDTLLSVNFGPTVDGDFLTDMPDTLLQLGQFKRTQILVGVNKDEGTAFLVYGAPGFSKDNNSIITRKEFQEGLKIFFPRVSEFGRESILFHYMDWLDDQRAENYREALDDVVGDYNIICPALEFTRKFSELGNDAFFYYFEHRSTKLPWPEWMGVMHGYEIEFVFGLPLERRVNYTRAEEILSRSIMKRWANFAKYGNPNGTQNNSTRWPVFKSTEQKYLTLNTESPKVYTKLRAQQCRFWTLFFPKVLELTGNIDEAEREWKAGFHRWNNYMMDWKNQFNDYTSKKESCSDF
T1 sequence (O42275 24-633): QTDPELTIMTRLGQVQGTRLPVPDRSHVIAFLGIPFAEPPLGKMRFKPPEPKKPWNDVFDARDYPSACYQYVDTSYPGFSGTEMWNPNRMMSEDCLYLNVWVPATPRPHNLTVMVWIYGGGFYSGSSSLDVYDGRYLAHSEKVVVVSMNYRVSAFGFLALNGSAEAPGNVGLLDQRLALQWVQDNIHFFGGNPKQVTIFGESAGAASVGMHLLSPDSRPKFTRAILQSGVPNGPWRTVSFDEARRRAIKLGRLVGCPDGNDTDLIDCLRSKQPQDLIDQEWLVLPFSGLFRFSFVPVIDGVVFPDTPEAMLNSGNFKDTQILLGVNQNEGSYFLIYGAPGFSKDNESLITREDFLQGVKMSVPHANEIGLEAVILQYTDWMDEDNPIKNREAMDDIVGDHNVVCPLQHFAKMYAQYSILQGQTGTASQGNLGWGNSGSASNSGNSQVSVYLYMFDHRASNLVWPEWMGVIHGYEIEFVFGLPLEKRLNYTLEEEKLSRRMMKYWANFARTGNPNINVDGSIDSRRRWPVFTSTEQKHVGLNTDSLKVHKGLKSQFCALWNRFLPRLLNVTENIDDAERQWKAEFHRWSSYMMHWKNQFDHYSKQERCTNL

**Q.** Which results are given for `O=C1c2ccccc2-n2c1nc1ccc(NS(=O)(=O)c3ccc(F)cc3)cc1c2=O` [8f]?
**A.** IC50 [1]: 43 ± 1.12 µM; IC50 [2]: > 50 µM; H2O2-Induced PC12 Cell Viability (% of Control) ([3]; compound 10 μM): 34.24 ± 3.5 % of Control; H2O2-Induced PC12 Cell Viability (% of Control) ([3]; compound 30 μM): 42.25 ± 1.7 % of Control; Cell Viability (% of Control) ([4]; compound 30 μM): 99.4 ± 1.7 % of Control; Cell Viability (% of Control) ([4]; compound 50 μM): 98.3 ± 3.0 % of Control

**Q.** Which IC50 [1] does the source give for `O=C1c2ccccc2-n2c1nc1ccc(NS(=O)(=O)c3cccc(F)c3)cc1c2=O` [8g] here?
**A.** The IC50 was over 50 µM.

**Q.** What about the IC50 [2] of the same molecule?
**A.** Its IC50 is over 50 µM.

**Q.** And the “H2O2-Induced PC12 Cell Viability (% of Control)” value ([3]; compound 10 μM)?
**A.** The value was 44.37 ± 0.5 % of Control.

**Q.** And the “H2O2-Induced PC12 Cell Viability (% of Control)” value ([3]; compound 30 μM)?
**A.** Its value is 52.28 ± 2.3 % of Control.

**Q.** And the “Cell Viability (% of Control)” value ([4]; compound 30 μM)?
**A.** The value was 99.6 ± 1.2 % of Control.

**Q.** What about the “Cell Viability (% of Control)” value ([4]; compound 50 μM) of the same molecule?
**A.** The value was 99.5 ± 2.7 % of Control.

**Q.** Which results are given for `O=C1c2ccccc2-n2c1nc1ccc(NS(=O)(=O)c3ccccc3F)cc1c2=O` [8h]?
**A.** IC50 [1]: > 50 µM; IC50 [2]: > 50 µM; H2O2-Induced PC12 Cell Viability (% of Control) ([3]; compound 10 μM): 36.03 ± 3.0 % of Control; H2O2-Induced PC12 Cell Viability (% of Control) ([3]; compound 30 μM): 46.73 ± 3.5 % of Control; Cell Viability (% of Control) ([4]; compound 30 μM): 99.4 ± 1.4 % of Control; Cell Viability (% of Control) ([4]; compound 50 μM): 98.3 ± 2.7 % of Control

**Q.** What does the source list for `CC(=O)Nc1ccc(S(=O)(=O)Nc2ccc3nc4n(c(=O)c3c2)-c2ccccc2C4=O)cc1` [8i]?
**A.** IC50 [1]: > 50 µM; IC50 [2]: 25.9 ± 2.38 µM; H2O2-Induced PC12 Cell Viability (% of Control) ([3]; compound 10 μM): 48.46 ± 1.6 % of Control; H2O2-Induced PC12 Cell Viability (% of Control) ([3]; compound 30 μM): 59.63 ± 2.5 % of Control; Cell Viability (% of Control) ([4]; compound 30 μM): 99.8 ± 1.2 % of Control; Cell Viability (% of Control) ([4]; compound 50 μM): 99.4 ± 1.3 % of Control

**Q.** What does the source list for `COc1ccc(S(=O)(=O)Nc2ccc3nc4n(c(=O)c3c2)-c2ccccc2C4=O)cc1` [8j]?
**A.** IC50 [1]: > 50 µM; IC50 [2]: 10.2 ± 2.41 µM; H2O2-Induced PC12 Cell Viability (% of Control) ([3]; compound 10 μM): 38.02 ± 3.1 % of Control; H2O2-Induced PC12 Cell Viability (% of Control) ([3]; compound 30 μM): 47.36 ± 6.1 % of Control; Cell Viability (% of Control) ([4]; compound 30 μM): 99.9 ± 1.5 % of Control; Cell Viability (% of Control) ([4]; compound 50 μM): 98.9 ± 2.1 % of Control; Anti-inflammatory activity in the AIA model [5]: exhibited good anti-inflammatory activity in the AIA model

**Q.** Which results are given for `COc1ccc(S(=O)(=O)Nc2ccc3nc4n(c(=O)c3c2)-c2ccccc2C4=O)cc1OC` [8k]?
**A.** IC50 [1]: > 50 µM; IC50 [2]: > 50 µM; H2O2-Induced PC12 Cell Viability (% of Control) ([3]; compound 10 μM): 44.37 ± 0.5 % of Control; H2O2-Induced PC12 Cell Viability (% of Control) ([3]; compound 30 μM): 52.28 ± 2.3 % of Control; Cell Viability (% of Control) ([4]; compound 30 μM): 99.6 ± 1.2 % of Control; Cell Viability (% of Control) ([4]; compound 50 μM): 99.5 ± 2.7 % of Control

**Q.** With `COc1ccc(S(=O)(=O)Nc2ccc3nc4n(c(=O)c3c2)-c2ccccc2C4=O)c(OC)c1` [8l] as the molecule, how does the IC50 [1] read?
**A.** The IC50 was over 50 µM.

**Q.** What about the IC50 [2] of the same molecule?
**A.** Its IC50 is over 50 µM.

**Q.** What about the “H2O2-Induced PC12 Cell Viability (% of Control)” value ([3]; compound 10 μM) of the same molecule?
**A.** Its value is 34.61 ± 3.7 % of Control.

**Q.** And the “H2O2-Induced PC12 Cell Viability (% of Control)” value ([3]; compound 30 μM)?
**A.** The value was 38.1 ± 2.7 % of Control.

**Q.** What about the “Cell Viability (% of Control)” value ([4]; compound 30 μM) of the same molecule?
**A.** The value was 99.4 ± 1.1 % of Control.

**Q.** What about the “Cell Viability (% of Control)” value ([4]; compound 50 μM) of the same molecule?
**A.** The value was 98.7 ± 1.3 % of Control.

**Q.** With `O=C1c2ccccc2-n2c1nc1ccc(NS(=O)(=O)c3ccc(OC(F)(F)F)cc3)cc1c2=O` [8m] as the molecule, how does the IC50 [1] read?
**A.** Its IC50 is over 50 µM.

**Q.** What about the IC50 [2] of the same molecule?
**A.** Its IC50 is over 50 µM.

**Q.** And the “H2O2-Induced PC12 Cell Viability (% of Control)” value ([3]; compound 10 μM)?
**A.** Its value is 44.67 ± 2.3 % of Control.

**Q.** And the “H2O2-Induced PC12 Cell Viability (% of Control)” value ([3]; compound 30 μM)?
**A.** The value was 53.92 ± 3.9 % of Control.

**Q.** And the “Cell Viability (% of Control)” value ([4]; compound 30 μM)?
**A.** Its value is 99.5 ± 3.1 % of Control.

**Q.** And the “Cell Viability (% of Control)” value ([4]; compound 50 μM)?
**A.** Its value is 98.2 ± 1.7 % of Control.
